# Results taken from patent US20240109914A1, “IMIDAZOTHIAZOLE COMPOUNDS AND ANALOGS THEREOF AND METHODS FOR TREATING NEMATODE INFECTIONS IN PLANTS” (The Governing Council of The University of Toronto, priority 2021, published 2024).
# Like-named read-outs stand apart in the source and are kept apart here.
# How the values were obtained:
# M. hapla eggs = experiment: Meloidogyne hapla in vitro egg hatch assay; type: in vivo; settings: 45 μM; for Number of Hatched Eggs: 8 days at room temperature, about 90 eggs per well, tested once; for Number of Hatched Eggs z-score: 8 days, z-score vs 8 untreated DMSO wells
# Method: The M. hapla were originally obtained from a soil sample of muck soil from Ste-Clotilde, Quebec, Canada. Using tweezers, egg masses were carefully removed from root material from infested carrot roots. Eggs were liberated from the egg masses using a mild sodium hypochlorite bleaching protocol, whereby egg masses were bleached with a 10% commercial bleach (sodium hypochlorite) solution for 4 minutes with vigorous shaking, and then washed 5 times with deionized water. 50 μL of deionized water was added to each well of two 96-well polystyrene culture plates, and 0.5 μL of chemical (or DMSO alone) was added to each well. Approximately 90 eggs were added to each well in 49.5 ul of deionized water. The plates were sealed with parafilm and incubated for 8 days at room temperature without shaking in a Tupperware box filled with wet paper towels. After the 8-day incubation, the number of hatched eggs was counted for each treatment and for the untreated controls. Each chemical treatment was tested only once. 8 separate untreated DMSO controls were included in the experiment. The z-score for each treatment was calculated using the mean and standard deviation of the untreated DMSO control wells.
# C. elegans = C. elegans dose-response (viability, minimum lethal concentration); type: in vivo, Caenorhabditis elegans; settings: Caenorhabditis elegans, 72 h, L1 worms, 3 days at 20° C.
# Method: Forty microliters of an HB101 E. coli bacterial suspension in liquid NGM (nematode growth media—see ref. 42 for the recipe) was added to each well of a 96-well flat-bottom culture plate, after which approximately 25 synchronized L1 worms, in 10 μl of M9 buffer (see ref. 43 for the recipe), were added to each well. The synchronized L1 worms were obtained from an embryo preparation performed the previous day (see ref. 43 for the protocol). For the L1 assays, 0.5 μl of test compound solution (or DMSO alone) was immediately added to the wells using a multichannel pipette; the final DMSO concentration is 1% (v/v). The worms were incubated for 3 days at 20° C. and the number of viable animals was counted.
# At least three biological replicates were performed for each dose-response assay. For each biological replicate, two technical replicates were performed and the numbers of viable animals for each technical replicate were combined (i.e. ˜ 50 worms assayed per concentration). The number of viable worms at each concentration was divided by the corresponding DMSO control value to give the “relative viability” for each concentration. The “relative viability” values were then averaged across the biological replicates. Minimum lethal concentration was defined as the lowest concentration at which at least 20% of worms die.
# M. incognita J2 larvae = experiment: Meloidogyne incognita in vitro larval mobility assay; type: in vivo; settings: 45 μM, 4 days; for Replicate 1 z-score / Replicate 2 z-score: z-score vs untreated DMSO wells; for pest or weed control at 45 µM: Meloidogyne incognita, 96 h
# Method: M. incognita (Kofoid & White) Chitwood Race 1 (originally isolated in Maryland) was used for all experiments, and was maintained on pepper (Capsicum annuum L.) cv. PA-136 in a greenhouse as previously described^44. Infective J2 juveniles were collected as described in ref. 45. The microwell dose-response experiments were carried out similarly to previously described protocols^44,46. In brief, 50 μL of deionized water was added to the wells of 96-well polystyrene plates and 0.5 μL of test compound (or DMSO alone) was added to each well. Approximately 35 J2s were then added to each well in 49.5 μL of deionized water. The chemicals were tested at 45 μM, and the final concentration of DMSO in each well was 0.5% (v/v). DMSO alone was added to 3 separate wells. The plates were covered with plastic adhesive strips, and the lids of the plates were sealed with parafilm. The plates were incubated at 25° C. without shaking for 4 days. The percent of worms that were immobile (% immobile) was quantified by counting the number of immobile worms after 4 days of incubation, dividing the number of immobile worms by the total number of worms in the well, and then multiplying by 100. Two replicates were performed for each treatment. The z-score for each treatment was calculated using the mean and standard deviation of the untreated DMSO control wells. The average % immobile value was calculated across the two replicates. A test compound was considered most promising if the z-score was greater than 1.645 in both replicates.
# tomato plants = experiment: Root mass of tomato plants in the soil infectivity assay; settings: 45 μM in soil, 8 weeks
# Method: For the infectivity assays, 90 grams of soil (1:1 sand:loam mix) was added to each cell of several 6-cell plastic garden packs. The soil was drenched with 18 mL of deionized water containing dissolved test compound or DMSO alone. 2,500 infective J2 juveniles were then added to the soil in 2 mL of deionized water, for a total water volume of 20 mL. […] The DMSO concentration varied from 0.1% to 0.8% (v/v) depending on the stock concentration of the test compound. The highest DMSO concentration was used as the DMSO control. The J2s were incubated in the soil and chemical for 24 hours, after which two- to three-week old tomato seedlings were transplanted into the soil (one plant per cell). Two replicates were performed for each chemical treatment, and four replicates were done for the DMSO controls. The whole experiment was replicated twice, in two different batches on two different days, for a total of four replicates for each test compound treatment, and eight replicates for the DMSO controls. Inoculated plants were grown for 8 weeks in a greenhouse, as described^47, under long-day conditions (16-h photoperiod) with 26/18° C. day/night temperatures. After 8 weeks, the plants were destructively harvested. The tops were removed and discarded, and roots were gently washed with water to remove adhering soil. Eggs were extracted by placing rinsed roots in 0.6% sodium hypochlorite and agitating at 300 rpm for 3 min. Roots were then rinsed over nested 250—and 25.4-μm sieves, with eggs collected from the latter and suspended in water. Roots were dried in a 65° C. oven for at least 24 hours, after which dry roots were weighed. The number of eggs from each plant root was counted on a dissection microscope using a haemocytometer, and the number of eggs per milligram of root was calculated by dividing the total egg number by the mass of the dried root material. An average was taken across the replicates performed on the same day, and then normalized to the DMSO control average. […] An average percent effectiveness value was then calculated across the two different batches carried out on different days.
# M. incognita = experiment: Meloidogyne incognita infectivity assay (soil, tomato roots); type: in vivo; settings: Meloidogyne incognita, 1344 h, 45 μM in soil, 8 weeks, eggs per mg root relative to DMSO control, read-out: % effectiveness at inhibiting reproduction of M. incognita
# Source text: An M. incognita population originally collected from grape (Vitis vinifera) in Parlier, California, was used for all experiments, and they were maintained on tomato plants (Solanum lycopersicum ‘Rutgers’) as previously described^47. Infective J2 juveniles were collected as described in ref. 47.
# [1] = lowest concentration at which at least 20% of worms die, read-out: Minimum Lethal Concentration
# [2] = same values in ppm, read-out: Minimum Lethal Concentration (ppm)
# [3] = average of the two replicates, read-out: Average % Immobile
# [4] = replicate 1, read-out: Replicate 1 % Immobile
# [5] = replicate 2, read-out: Replicate 2 % Immobile
Structure (SMILES),Number of Hatched Eggs (M. hapla eggs),Number of Hatched Eggs z-score (M. hapla eggs),minimal effective concentration (C. elegans; [1]) [µM],minimal effective concentration (C. elegans; [2]) [µg/mL],Replicate 1 z-score (M. incognita J2 larvae; replicate 1),Replicate 2 z-score (M. incognita J2 larvae; replicate 2),pest or weed control at 45 µM (M. incognita J2 larvae; [3]) [%],pest or weed control at 45 µM (M. incognita J2 larvae; [4]) [%],pest or weed control at 45 µM (M. incognita J2 larvae; [5]) [%],Normalized root mass (relative to DMSO control) (tomato plants),pest or weed control at 45 µM (M. incognita) [%]
Cc1ccc(-c2cn3c(C)csc3n2)cc1 [I-4],4,[3.31],100,22.8,–,–,–,–,–,–,–
Cc1c(-c2ccccc2Br)nc2sccn12 [I-39],–,–,> 100,> 29.3,–,–,–,–,–,–,–
Ic1ccccc1-c1cn2ccsc2n1 [I-43],4,[3.31],50,16.3,–,–,–,–,–,–,–
Cc1ccc(-c2cn3ccsc3n2)cc1 [I-2],–,–,50,14.8,[14.54],[6.03],68.5,93.8,43.1,–,–
Ic1cccc(-c2cn3ccsc3n2)c1 [I-42],–,–,25,8.2,[5.89],[11.03],61.1,51.5,70.7,–,–
Clc1ccc(-c2cn3ccsc3n2)c(Cl)c1 [I-32],–,–,6.25,1.7,–,–,–,–,–,1.31,4.4
Cc1ccc(-c2nc3sccn3c2C)cc1 [I-3],–,–,> 100,> 22.8,[6.94],[2.76],40.8,56.7,25,–,–
CCc1ccc(-c2cn3c(C)csc3n2)cc1 [I-9],2,[3.97],100,24.2,–,–,–,–,–,–,–
Cc1csc2nc(-c3ccccc3Br)cn12 [I-40],–,–,> 100,> 29.3,–,–,–,–,–,–,–
Nc1ccc(-c2cn3ccsc3n2)cc1 [I-44],–,–,> 100,> 21.5,–,–,–,–,–,–,–
Cc1c(-c2cccc(F)c2)nc2sccn12 [I-15],–,–,> 100,> 23.2,–,–,–,–,–,1.35,5.8
CC(C)(C)c1ccc(-c2cn3ccsc3n2)cc1 [I-12],–,–,100,25.6,–,–,–,–,–,–,–
CCc1ccc(-c2nc3sccn3c2C)cc1 [I-8],–,–,50,12.1,–,–,–,–,–,–,–
Cc1csc2nc(-c3cccc(F)c3)cn12 [I-16],–,–,> 100,> 23.2,–,–,–,–,–,1.15,0
Cc1c(-c2ccccc2Cl)nc2sccn12 [I-28],–,–,> 100,> 24.9,–,–,–,–,–,1.37,17.4
Cc1csc2nc(-c3ccccc3F)cn12 [I-20],–,–,> 100,> 23.2,–,–,–,–,–,–,–
CCc1cccc(-c2cn3ccsc3n2)c1 [I-11],3,[3.64],100,22.8,–,–,–,–,–,–,–
Clc1cccc(-c2cn3ccsc3n2)c1 [I-23],1,[4.30],100,23.5,[14.66],[13.61],≥ 75,94.4,85,–,–
Cc1cn2cc(-c3cccc(Br)c3)nc2s1 [I-37],–,–,> 100,> 29.3,–,–,–,–,–,1.31,21.6
Cc1ccc(-c2cn3ccsc3n2)cc1C [I-6],–,–,> 100,> 22.8,[4.25],[3.22],35.5,43.5,27.6,–,–
Brc1ccccc1-c1cn2ccsc2n1 [I-38],–,–,100,27.9,–,–,–,–,–,1.21,0
N#Cc1ccc(-c2cn3ccsc3n2)cc1 [I-87],3,[3.64],–,–,[6.98],[9.68],60.1,56.9,63.3,–,–
FC(F)(F)Oc1ccc(-c2cn3ccsc3n2)cc1 [I-61],1,[4.30],–,–,[8.86],[6.94],57.1,66,48.1,–,–
Cc1c(-c2ccccc2F)nc2sccn12 [I-19],–,–,> 100,> 23.2,–,–,–,–,–,1.27,16.6
Brc1cccc(-c2cn3ccsc3n2)c1 [I-34],1,[4.30],50,14,[15.00],[14.11],≥ 75,96.1,87.8,–,–
"CC(C)NC(=O)N1CC(=O)N(c2cc(Cl)cc(Cl)c2)C1=O [Iprodione, iprodione, reference compound]",15,[−0.33],–,–,[−0.02],[1.71],13.8,10.9,16.7,–,–
Fc1ccccc1-c1cn2ccsc2n1 [I-18],–,–,–,–,–,–,–,–,–,1.13,0
FC(F)Oc1ccc(-c2cn3ccsc3n2)cc1 [I-63],2,[3.97],–,–,[15.80],[16.33],–,100,100,–,–
Cc1csc2nc(-c3cccc(Br)c3)cn12 [I-36],–,–,> 100,> 29.3,–,–,–,–,–,–,–
Cc1ccc(-c2cn3cc(C)sc3n2)cc1 [I-5],–,–,25,5.7,–,–,–,–,–,–,–
